SMILES strings stand for the structures.

The target of this assay is T1, GSG2 (Haspin) (Homo sapiens, UniProt Q8TF76).
T1 construct: purchased Thermo Fisher Scientific (Life Technologies) SelectScreen
The assay can be described thus: SelectScreen Adapta. In kind it is biochemical. In outline:
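Percent values come from Thermo SelectScreen profiling of NU5455, combining activity and binding assays. CSF1R was run in Z'LYTE format at Km app ATP, and CAMK1 in Adapta format with ATP listed at 10.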

T1 sequence (Q8TF76 whole entry): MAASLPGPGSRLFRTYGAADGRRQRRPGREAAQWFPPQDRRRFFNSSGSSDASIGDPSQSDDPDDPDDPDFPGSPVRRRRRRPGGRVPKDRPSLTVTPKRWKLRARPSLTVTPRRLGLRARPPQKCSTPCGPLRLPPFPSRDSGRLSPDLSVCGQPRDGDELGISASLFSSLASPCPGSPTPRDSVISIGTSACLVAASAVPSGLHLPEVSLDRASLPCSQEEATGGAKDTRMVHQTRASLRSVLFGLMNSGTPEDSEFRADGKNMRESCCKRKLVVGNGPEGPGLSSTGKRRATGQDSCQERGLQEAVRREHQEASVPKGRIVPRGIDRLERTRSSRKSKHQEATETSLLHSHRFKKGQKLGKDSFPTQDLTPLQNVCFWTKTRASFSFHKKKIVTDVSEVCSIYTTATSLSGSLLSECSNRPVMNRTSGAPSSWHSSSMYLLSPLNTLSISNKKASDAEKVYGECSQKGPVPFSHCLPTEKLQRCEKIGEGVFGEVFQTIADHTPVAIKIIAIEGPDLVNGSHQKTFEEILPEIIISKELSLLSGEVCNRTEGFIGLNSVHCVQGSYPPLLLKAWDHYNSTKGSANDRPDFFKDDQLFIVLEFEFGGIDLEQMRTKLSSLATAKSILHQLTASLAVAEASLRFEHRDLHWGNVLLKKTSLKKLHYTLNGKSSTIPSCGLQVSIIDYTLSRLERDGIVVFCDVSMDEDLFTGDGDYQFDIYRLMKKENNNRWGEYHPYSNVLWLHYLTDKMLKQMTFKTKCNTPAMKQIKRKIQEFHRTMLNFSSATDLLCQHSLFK

For `CN(C(=O)CN1CCOCC1)c1ccc2sc3c(-c4cccc5c(=O)cc(N6CC7CCC(C6)O7)oc45)cccc3c2c1` [NU5455], the inhibition at 1 µM was -15%.

A word on the inhibition: it is the drop in the measured response relative to a control, in per cent.

(Values after PMC6934184, “Selective DNA-PKcs inhibition extends the therapeutic index of localized radiotherapy and chemotherapy” (The Journal of Clinical Investigation, 2019).)
